Reference: patent US20040266811A1, “Methods for inducing regeneration, remyelination, and hypermyelination of nervous tissue” (priority 2002, published 2004)
“Also recorded” adds a separate entry of the source.

Key:
DRG explants = assay: Neurite outgrowth from DRG explants; type: cell-based, C57B1/6 mice; conditions: 1 μM GM-284, 96 h
Method: (A) DRGs were explanted and cultured alone, (panel i), in the presence of 100 ng/ml NGF (panel ii) or in the presence of 1 μM GM-284 (panel iii), for 96 h. At the end of the culture period, the tissue was fixed and stained for expression of neuron-specific β-III tubulin. […] (B) Both Schwann cells and neurons are present in DRG explants. To determine if the neuritogenic effects of GM-284 are direct, acting on neurons, or indirect, acting through Schwann cells, sensory neurons from E18 mice were isolated and treated with either NGF (left panel) or GM-284 (right panel) for 6 days.
Explanted DRG ganglia were dissected from P1 to P3 C57B1/6 mice, as previously described (Weinstein et al., Targeted expression of an oncogenic adaptor protein v-Crk potentiates axonal growth in dorsal root ganglia and motor neurons in vivo. Brain Res. Dev. Brain Res., 116:29-39, 1999). Briefly, DRGs were dissected and placed in ice-cold PBS containing 2% glucose, then transferred onto polyornithine/laminin-coated tissue culture plates (Biocoat, Becton Dickinson Laboratories) in DMEM-plating medium overnight. […] Cultures were kept at 37° C., in 5% CO2, for up to 1 week, at which time the extent of well-defined neurite outgrowth was assessed.

[1] = test system: Erk phosphorylation in DRG neurons; assay: Erk phosphorylation immunoblot in DRGs; type: cell-based, mice; conditions: 1 μM GM-284, 30 min or 4 h
Method: (A) DRGs were prepared and cultured as above, except that either the MEK1 inhibitor, PD 098059, or NGF-neutralizing antibodies were included in cultures treated with either NGF or GM-284. Maximal response was determined to be the extent of neurite outgrowth when DRGs were cultured in NGF alone (spotted bars) or in 1 μM GM-284 (striped bars). As indicated, DRGs were treated with either NGF or GM-284, in the presence of either 0.25 mg/ml anti-NGF neutralizing antibodies or PD 098059. […] DRGs were treated with 100 ng/ml NGF or 1 μM GM-284, for 30 min or 4 h, as indicated, and the detergent lysates were prepared and immunoblotted with anti-phospho-Erk monoclonal antibody. The p42 and p44 bands are indicated by arrowheads.
293T cells were lysed in ice-cold HNTG buffer (20 mM HEPES, pH 7.5; 150 mM NaCl; 10% glycerol; and 1% Triton X-100) containing 0.1 mM sodium molybdate, 1 mM sodium vanadate, 1 mM phenylmethylsulfonyl fluoride (PMSF), and 10 μg/ml aprotinin. After 10 min at 4° C., cleared lysates were subjected to SDS-PAGE and Western blot analysis using standard protocols. Blots were incubated with the indicated primary antibodies and the appropriate […] secondary antibodies, followed by detection using enhanced chemiluminescence (ECL) reagent (Renaissance, NEN).

[2] = test system: PC12 cells co-cultured on monolayers of Schwann cells; assay: GFP-PC12 / Schwann cell co-culture neurite outgrowth; type: cell-based, Sprague-Dawley rats (Schwann cells); conditions: GM-284, 48 h
Method: Wild-type and TrkA-overexpressing PC12 cells (Hempstead et al., Overexpression of the trk tyrosine kinase rapidly accelerates nerve growth factor-induced differentiation. Neuron, 9:883-96, 1992) were maintained in DMEM supplemented with 10% calf serum and 5% horse serum, the latter of which was also supplemented with 200 μg/ml G418 to maintain TrkA selection. Cultures were treated with 100 ng/ml NGF or the immunophilin ligands, or treated with Schwann-cell-conditioned medium supplemented with 5% horse serum, as indicated below. To generate GFP-expressing PC12 cells, a bicistronic pCX-bsr retroviral vector (Escalante et al., Phosphorylation of c-Crk II on the negative regulatory Tyr222 mediates nerve growth factor-induced cell spreading and morphogenesis. J. Biol. Chem., 275:24787-797, 2000), which drives expression of green fluorescent protein (GFP), was used to infect dividing PC12 cells.
GFP-expressing virus was produced by lipofectamine-mediated transfection of 1.0 μg of pCX-bsr DNA, together with 1.0 μg of pC-Eco retroviral DNA, into the Bosc23 replication-incompetent ecotropic packaging line (Retromax™, Imgen), according to the manufacturer's protocols. The transfection medium was replaced with 10 ml of DMEM containing 10% fetal calf serum, for 24 h, and then collected and frozen at −70° C. The cells were re-fed with fresh DMEM (10 ml), and maintained for an additional 16 h. […]

CCC(C)(C)C(=O)C(=O)N1CCC[C@H]1c1nnc([C@@H]2CCCN2C(=O)C(=O)C(C)(C)CC)o1 [GM-284]
neurite outgrowth from DRG explants (DRG explants): as active as NGF in inducing neuritogenesis; also recorded: indistinguishable from NGF-treated sister explants; also recorded: comparable outgrowth in the NGF and GM-284 treated cultures
Erk phosphorylation in DRG [1]: no activity on Erk phosphorylation; also recorded: fails to activate the ERK pathway
neuritogenesis of PC12 cells co-cultured with Schwann cells [2]: extensive neuritogenesis
